Target: T1, AMPK4 (Arabidopsis thaliana, UniProt O82514)
T1 sequence (O82514 2-246): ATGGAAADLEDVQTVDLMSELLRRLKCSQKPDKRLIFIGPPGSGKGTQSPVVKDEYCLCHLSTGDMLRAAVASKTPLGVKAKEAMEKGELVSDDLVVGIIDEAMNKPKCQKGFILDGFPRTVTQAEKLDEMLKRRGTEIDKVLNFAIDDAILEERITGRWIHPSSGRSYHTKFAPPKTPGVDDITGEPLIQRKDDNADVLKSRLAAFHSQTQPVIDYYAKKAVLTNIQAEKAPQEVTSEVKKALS
Experiment: coupled pyruvate kinase / lactate dehydrogenase assay, […] nm
Type: biochemical
Details: 1 mM AMP, 1 mM ATP

Nc1ncnc2c1ncn2[C@@H]1O[C@H](COP(=O)(O)O)[C@@H](O)[C@H]1O [AMP]
coupled pyruvate kinase / lactate dehydrogenase assay, 340 nm: Analogous data for AMPK4
